{"source": "patent US20150376099A1", "about": "“New 3,3',5,5'-Tetraisopropyl-4,4'-Diphenol Crystal Form And Preparation Method Thereof” (XI' AN LIBANG PHARMACEUTICAL CO., LTD., priority 2013, published 2015)", "key": {"[1]": {"experiment": "Stability of crystal forms under strong light", "type": "physicochemical", "settings": "light stable box, illumination of 4500lux, 7 days", "text": "(§1) As compared with the solvate, the anhydrate and hydrate are more useful as pharmaceutical crystal forms. The relative stability of the crystal form is an important indicator to be investigated in the research of drug polymorph, and the stability under high temperature, high humidity, strong light, and in water is investigated for the crystal forms I and II.\nThe crystal forms I and II prepared in Example 6 and 15 were respectively placed in a light stable box with illumination of 4500lux for 7 days and then characterized, and the result was shown in Table 4."}, "[2]": {"test_system": "GABA", "settings": "cited from earlier work"}, "[3]": {"test_system": "brain", "settings": "cited from earlier work"}, "[4]": {"settings": "compared with propofol; cited from earlier work"}, "[5]": {"test_system": "kainate-induced excitotoxicity", "settings": "cited from earlier work"}, "[6]": {"test_system": "slow Ca^2+ channel", "settings": "cited from earlier work"}, "[7]": {"test_system": "GAGA receptor", "settings": "cited from earlier work"}, "[8]": {"test_system": "NMDA receptors", "settings": "cited from earlier work"}, "[9]": {"experiment": "Stability of crystal forms suspended in water", "type": "physicochemical", "settings": "suspended in water at 25° C. for 7 days", "protocol": "as §1\nThe crystal forms I and II prepared in Example 6 and 15 were placed in water at 25° C. and suspended for 7 days and then characterized, and the result was shown in Table 4."}, "[10]": {"experiment": "Stability of crystal forms under high humidity", "type": "physicochemical", "protocol": "as §1\nThe crystal forms I and II prepared in Example 6 and 15 were respectively placed in a constant temperature and humidity chamber at 80° C. and 75% RH for 7 days and then characterized, and the result was shown in Table 4."}, "[11]": {"experiment": "Stability of crystal forms under high temperature", "type": "physicochemical", "settings": "ventilated oven at 80° C. for 7 days, then characterized", "protocol": "as §1\nThe crystal forms I and II prepared in Example 6 and 15 were respectively placed in a ventilated oven at 80° C. for 7 days and then characterized, and the result was shown in Table 4."}}, "data": [{"smiles": "CC(C)c1cc(-c2cc(C(C)C)c(O)c(C(C)C)c2)cc(C(C)C)c1O", "note": "[crystal form I, 3,3′,5,5′-tetraisopropyl-4,4′-diphenol]", "values": [{"measurement": "Crystal form found after Light", "setting": "[1]", "result": "good stability"}]}, {"smiles": "CC(C)c1cc(-c2cc(C(C)C)c(O)c(C(C)C)c2)cc(C(C)C)c1O", "note": "[3,3′,5,5′-tetraisopropyl-4,4′-diphenol]", "values": [{"measurement": "GABA agonistic effect", "setting": "[2]", "result": "GABA agonistic effect"}, {"measurement": "Protective effect of brain", "setting": "[3]", "result": "strong protective effect of brain"}, {"measurement": "Antioxidant effect", "setting": "[4]", "result": "significantly stronger than propofol"}, {"measurement": "Effect on kainate-induced excitotoxicity", "setting": "[5]", "result": "protective effect"}, {"measurement": "Ca^2+ influx in the slow Ca^2+ channel", "setting": "[6]", "result": "regulate Ca^2+ influx"}, {"measurement": "Affinity for the GAGA receptor", "setting": "[7]", "result": "strong affinity"}, {"measurement": "Antagonism of NMDA receptors", "setting": "[8]", "result": "could antagonize NMDA receptors"}]}, {"smiles": "CC(C)c1cc(-c2cc(C(C)C)c(O)c(C(C)C)c2)cc(C(C)C)c1O", "note": "[crystal form II, 3,3′,5,5′-tetraisopropyl-4,4′-diphenol]", "values": [{"measurement": "Crystal form found after Water", "setting": "[9]", "result": "tendency of converting to the crystal form I"}, {"measurement": "Crystal form found after Water", "setting": "[9]; listed as II", "result": "I (few), II"}, {"measurement": "Stability under high humidity conditions", "setting": "[10]; 80° C. and 75% RH for 7 days (as printed in text)", "result": "tendency of converting to the crystal form I"}, {"measurement": "Crystal form found after High humidity (40° C., 75% RH)", "setting": "[10]; constant temperature and humidity chamber, 40° C., 75% RH, 7 days", "result": "I (few), II"}, {"measurement": "Crystal form found after High temperature (80° C.)", "setting": "[11]", "result": "tendency of converting to the crystal form I"}, {"measurement": "Crystal form found after High temperature (80° C.)", "setting": "[11]; listed as II", "result": "I, II"}]}]}
